From publication PMC6161059 (ACS Central Science, 2018)

Experiments:
[1] = biological target: β2AR(1.19H4) (Homo sapiens, UniProt P07550, INS20HHHH); assay: Fluorescence Ca2+ imaging; type: cell-based; conditions: 1 µM MAC(β2AR, O4), 5 µM U73122
[2] = biological target: T1, M1R(1.18H4) (Homo sapiens, UniProt P11229); type: cell-based; conditions: CHO cells, 1 μM Ni–NTA
T1 sequence (P11229 1-460): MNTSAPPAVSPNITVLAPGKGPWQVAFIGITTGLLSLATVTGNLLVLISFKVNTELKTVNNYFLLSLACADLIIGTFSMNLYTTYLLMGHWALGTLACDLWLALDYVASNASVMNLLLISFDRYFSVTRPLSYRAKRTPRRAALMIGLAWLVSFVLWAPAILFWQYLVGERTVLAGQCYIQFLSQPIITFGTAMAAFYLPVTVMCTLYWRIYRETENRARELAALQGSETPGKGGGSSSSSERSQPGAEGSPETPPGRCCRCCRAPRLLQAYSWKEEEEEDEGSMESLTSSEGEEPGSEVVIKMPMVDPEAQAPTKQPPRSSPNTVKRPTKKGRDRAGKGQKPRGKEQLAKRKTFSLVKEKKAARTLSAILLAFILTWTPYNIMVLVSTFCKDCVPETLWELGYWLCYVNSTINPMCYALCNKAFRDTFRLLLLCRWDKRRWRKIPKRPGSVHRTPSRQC

Compound | MAC(β2AR, O4)-induced Ca2+ response in presence of PLC inhibitor [1] | concentration–response on addition of Ni–NTA [2]
COc1ccc2c(c1)CC[C@@H]1[C@@H]2CC[C@]2(C)[C@@H](NCCCCCCN3C(=O)C=CC3=O)CC[C@@H]12 [U73122] | no response was detected | 
C[N+](C)(C)CC#CCOC1=NOCC1 [iperoxo] |  | unaffected
